What was measured:
Assay type in all cases: cell-based
MRGPRX2 [1] = biological target: T1, MRGPRX2 (Homo sapiens, UniProt Q96LB1); assay: MRGPRX2 FLIPR calcium mobilization assay; parameters: host or cells: CHO-K1; conditions: CHO-K1 cells stably expressing human MRGPRX2; Ca2+ release; agonist Cortistatin-14 at EC80
T1 sequence (Q96LB1 1-330): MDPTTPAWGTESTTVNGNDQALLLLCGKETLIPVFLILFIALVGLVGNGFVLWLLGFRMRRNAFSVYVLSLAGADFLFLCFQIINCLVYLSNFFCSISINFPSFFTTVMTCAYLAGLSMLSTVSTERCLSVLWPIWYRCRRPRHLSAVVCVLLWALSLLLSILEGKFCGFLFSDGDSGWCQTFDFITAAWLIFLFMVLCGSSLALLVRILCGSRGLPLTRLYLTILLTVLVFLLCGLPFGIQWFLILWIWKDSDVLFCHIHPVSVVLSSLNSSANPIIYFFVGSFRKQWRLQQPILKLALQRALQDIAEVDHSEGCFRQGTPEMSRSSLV
Procedure, shortened: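 CHO-K1 cells stably expressing the receptor, loaded with Calcium 6 dye, then preincubated 30 min at r.t. with compound in HBSS/20 mM HEPES pH 7.4. Cortistatin-14 at EC80 added; baseline-adjusted maximum RFU read over 110 s. IC50 from 3- or 4-parameter Hill fit.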

MRGPRX2 [2] = biological target: T1, MRGPRX2; assay: MRGPRX2 IP1 HTRF assay; parameters: host or cells: CHO-K1; conditions: CHO-K1 cells stably expressing human MRGPRX2; IP1 accumulation; agonist Cortistatin 14 1 μM
Procedure, shortened: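 CHO-K1 cells stably expressing human MRGPRX2, preincubated with compound 1 h at 37 °C, then stimulated with 1 μM Cortistatin 14 for 1 h. IP1 measured by HTRF against standard curve, normalized to DMSO and reference antagonist controls; IC50 from 3- or 4-parameter Hill fit.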

MRGPRX2 [3] = biological target: T1, MRGPRX2; assay: MRGPRX2 β-Arrestin recruitment assay (PathHunter); parameters: host or cells: CHO-K1 (PathHunter); conditions: PathHunter CHO-K1 MRGPRX2 β-Arrestin cell line; agonist Cortistatin 14 0.25 μM
Procedure, shortened: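 CHO-K1 PathHunter cells co-expressing ProLink-tagged MRGPRX2 and enzyme-acceptor-tagged β-arrestin were preincubated with compound 1 h at 37° C., then stimulated with cortistatin-14 (0.25 μM final) for 90 min. Enzyme-complementation luminescence read after 1 h detection; data normalized to DMSO and reference antagonist, IC50 from 3- or 4-parameter Hill fit.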

Measured: IC50

FC(F)(F)c1cn2c(NCC3(c4ccncc4)CCC3)cccc2n1 [Example 37, N-((1-(Pyridin-4-yl)cyclobutyl)methyl)-2-(trifluoromethyl)imidazo[1,2-a]pyridin-5-amine]
0.1 to 100 nM: all assays above

COc1cc(NCC2(c3ccc(F)cc3)CN(S(N)(=O)=O)C2)n2nc(C(F)(F)F)cc2n1 [Example 106, 3-(4-Fluorophenyl)-3-(((5-methoxy-2-(trifluoromethyl)pyrazolo[1,5-a]pyrimidin-7-yl)amino)methyl)azetidine-1-sulfonamide]
0.1 to 100 nM: all assays above

NS(=O)(=O)N1CC(CNc2cccc3nc(C(F)(F)F)nn23)(c2ccc(F)cc2)C1 [Example 32, 3-(4-Fluorophenyl)-3-(((2-(trifluoromethyl)-[1,2,4]triazolo[1,5-a]pyridin-5-yl)amino)methyl)azetidine-1-sulfonamide]
0.1 to 100 nM: all assays above

N#Cc1cnc(N2CC(CNc3cc(C(F)(F)F)nc4cc(C(F)(F)F)nn34)(c3ccc(F)cc3)C2)cn1 [Example 45, 5-(3-(((2,5-Bis(trifluoromethyl)pyrazolo[1,5-a]pyrimidin-7-yl)amino)methyl)-3-(4-fluorophenyl)azetidin-1-yl)pyrazine-2-carbonitrile]
0.1 to 100 nM: all assays above
